Key:
Format in all cases: cell-based, human
[1] = system: pTyr in Ha-(Val12)-ras transfected HB4a cells; assay: Western blot of tyrosine phosphorylation (pTyr) after GW2016 treatment, FIG. 2; conditions: 1 μM or 5 μM GW2016/72 hours
Description: (§1) The HB4a cell line was derived from human mammary luminal tissue. HB4a-erbB2 and HB4a-ras cell lines were generated by overexpression of erbB2 and mutant Ha-(Val-12)-ras in HB4a cell line. The S1 cell line was established by sub-cloning ErbB-2 transfected HB4a (see Harris R A, Eichholtz T J, Hiles J D, Page M J and O'Hare M J. (1999). Int J. Cancer. 80, 477, 484.)
(§2) HB4a cells grew in RPMI 1640 supplemented with L-glutamine, 10% FBS (Hyclone), 10 ug/ml hydrocortisone, and 5 ug/ml insulin. S1 and ras transfected cells were cultured in RPMI 1640 supplemented with L-glutamine, 10% FBS and 50 μg/ml hygromycin. Cell cultures were maintained in a humidified atmosphere of 5% CO2 at 37° C.
(§3) (a) The dual EGFR/erbB-2 inhibitor N-{3-Chloro-4-[(3-fluorobenzyl)oxy]phenyl}-6-[5-({[2-(methanesulphonyl)ethyl]amino}methyl)-2-furyl]-4-quinazolinamine and the cRaf-1 inhbitor of 3-(3,5-Dibromo-4-hydroxy-benzylidene)-5-iodo-1,3-dihydro-indol-2-one were dissolved in 100% DMSO to form solutions of 1, 5, 10, and 20 μM concentrations and tested on cells in growth medium for 3 continuous days. […]
(§4) Whole cell extracts were prepared by scraping cells off petri dishes, washing the cell pellet twice in PBS, and then resuspending the pellet in two-packed-cell volumes of RIPA buffer (150 mM NaCl, 50 mM Tris-HCl, pH 7.5, 0.25% deoxycholate, 1% NP-40, 5 mM sodium orthovanadate, 2 mM sodium fluoride and a protease inhibitor cocktail). Protein concentrations were determined using a modification of the Bradford method (Bio-Rad Laboratory). Steady state levels of total erbB-2, EGFR, Ras, Erk1/2, pErk1/2 and pTyr protein were assessed by Western blot which was carried out as follows: equal amounts of proteins was resolved by 7.5% SDS polyacrylamide gel electrophoresis under reducing conditions. […] Efficiency and equal loading of proteins was evaluated by Ponceau S staining. […]
(§5) HB4a cells growing in RPMI 1640 supplemented with L-glutamine, 10% FBS (Hyclone), 10 ug/ml hydrocortisone, and 5 μg/ml insulin. […] Protein concentrations were determined using a modification of the Bradford method (Bio-Rad Laboratory).

[2] = system: pTyr in erbB-2 transfected HB4a cells; assay: as above; conditions: 1 μM or 5 μM GW2016/72 hours
Description: as §1, §2, §3, §4, §5

[3] = system: pTyr in parental HB4a cells; assay: as above; conditions: 1 μM or 5 μM GW2016/72 hours
Description: as §1, §2, §3, §4, §5

[4] = system: pErk1/Erk2 in erbB-2 transfected HB4a cells; assay: Western blot of MAPK activation (pErk1/Erk2) after GW2016 treatment, FIG. 3; conditions: 1 μM or 5 μM GW2016/72 hours
Description: as §1, §2, §3, §4, §5

[5] = system: pErk1/Erk2 in Ha-(Val12)-ras transfected HB4a cells; assay: as above; conditions: Ha-(Val 12)-ras transfected HB4a cells; 1 μM or 5 μM GW2016/72 hours
Description: as §1, §2, §3, §4, §5

[6] = system: pErk1/Erk2 in parental HB4a cells; assay: as above; conditions: 1 μM or 5 μM GW2016/72 hours
Description: as §1, §2, §3, §4, §5

What does the source list for `CS(=O)(=O)CCNCc1ccc(-c2ccc3ncnc(Nc4ccc(OCc5cccc(F)c5)c(Cl)c4)c3c2)o1` [GW2016, N-{3-Chloro-4-[(3-fluorobenzyl)oxy]phenyl}-6-[5-({[2-(methanesulphonyl)ethyl]amino}methyl)-2-furyl]-4-quinazolinamine]?
effect on phosphorylation on tyrosine residues (pTyr), Western blot [1]: no effect; tyrosine phosphorylation (pTyr), Western blot [2]: reduction in tyrosine phosphorylation; tyrosine phosphorylation (pTyr), Western blot [3]: reduction in tyrosine phosphorylation; pErk1/Erk2, Western blot [4]: decrease in pErk1/Erk2; phosphorylation of Erk1/Erk2, Western blot [5]: no effect; Erk1/Erk2 phosphorylation, Western blot [6]: reduction in Erk1/Erk2 phosphorylation
